Laboratory results reported in ChEMBL document CHEMBL3044789, “Comparing weed and crop seedling response to pre-emergence pendimethalin application in Corchorus olitorius and Abelmoschus esculentus” (Crop Prot, 2006).

Tests used:
Calopogonium mucunoides [1] = assay: Herbicidal activity against Calopogonium mucunoides in Corchorus olitorius plots assessed as weed cover at 0.99 kg a.i/ha after 4 weeks (reference value: 20.1+/- 0.57 %); format: functional
Synedrella nodiflora [2] = assay: Herbicidal activity against Synedrella nodiflora in Corchorus olitorius plots assessed as weed cover at 0.66 kg a.i/ha after 4 weeks (reference value: 20.1+/- 0.57 %); format: functional
Corchorus olitorius [3] = assay: Phytotoxicity in Corchorus olitorius assessed as shoot length at 0.99 kg a.i/ha applied as solution after 7 weeks (reference value: 22.9 +/- 0.8 mm); format: organism-based; details: in vivo, other, 1176 h
Synedrella nodiflora [4] = assay: Herbicidal activity against Synedrella nodiflora in Abelmoschus esculentus plots assessed as weed cover at 0.33 kg a.i/ha after 4 weeks (reference value: 22.6 +/- 0.49 %); format: functional
Cyperus rotundus [5] = assay: Herbicidal activity against Cyperus rotundus in Abelmoschus esculentus plots assessed as weed recovery at 0.66 kg a.i/ha after 2 weeks (reference value: 60.1 +/- 0.46 %); format: functional
Euphorbia heterophylla [6] = assay: Herbicidal activity against Euphorbia heterophylla in Corchorus olitorius plots assessed as weed recovery at 0.33 kg a.i/ha after 2 weeks (reference value: 78.3 +/- 0.74 %); format: functional
Abelmoschus esculentus [7] = assay: Phytotoxicity in Abelmoschus esculentus assessed as shoot length at 0.33 kg a.i/ha treated to soil after 7 weeks (reference value: 8.5 +/- 0.34 mm); format: organism-based; details: in vivo, other, 1176 h
Synedrella nodiflora [8] = assay: Herbicidal activity against Synedrella nodiflora in Abelmoschus esculentus plots assessed as minor weed growth at 1.32 kg a.i/ha after 2 weeks; format: functional
Cyperus rotundus [9] = assay: Herbicidal activity against Cyperus rotundus in Abelmoschus esculentus plots assessed as weed cover at 0.66 kg a.i/ha after 4 weeks (reference value: 22.6 +/- 0.49 %); format: functional
Euphorbia heterophylla [10] = assay: Herbicidal activity against Euphorbia heterophylla in Corchorus olitorius plots assessed as weed cover at 0.66 kg a.i/ha after 7 weeks (reference value: 1.7 +/- 0.56 %); format: functional
Euphorbia heterophylla [11] = assay: Herbicidal activity against Euphorbia heterophylla in Abelmoschus esculentus plots assessed as weed cover at 0.66 kg a.i/ha after 2 weeks (reference value: 63.5 +/- 0.29 %); format: functional
Euphorbia heterophylla [12] = assay: Herbicidal activity against Euphorbia heterophylla in Corchorus olitorius plots assessed as weed recovery at 0.66 kg a.i/ha after 2 weeks (reference value: 78.3 +/- 0.74 %); format: functional
Euphorbia heterophylla [13] = assay: Herbicidal activity against Euphorbia heterophylla in Abelmoschus esculentus plots assessed as major weed growth at 0.33 kg a.i/ha after 2 weeks; format: functional
Synedrella nodiflora [14] = assay: Herbicidal activity against Synedrella nodiflora in Abelmoschus esculentus plots assessed as weed recovery at 0.66 kg a.i/ha after 2 weeks (reference value: 60.1 +/- 0.46 %); format: functional
Abelmoschus esculentus [15] = assay: Phytotoxicity in Abelmoschus esculentus assessed as root length at 0.99 kg a.i/ha applied as solution after 7 weeks (reference value: 23 +/- 0.34 mm); format: organism-based; details: in vivo, other, 1176 h
Asteraceae [16] = assay: Herbicidal activity against Aspilia africana in Corchorus olitorius plots assessed as weed cover at 0.66 kg a.i/ha after 2 weeks (reference value: 81.7 +/- 0.43 %); format: functional
Chromolaena odorata [17] = assay: Herbicidal activity against Chromolaena odorata in Corchorus olitorius plots assessed as weed cover at 1.32 kg a.i/ha after 7 weeks (reference value: 1.7 +/- 0.56 %); format: functional
Ageratum conyzoides = assay: Herbicidal activity against Ageratum conyzoides in Corchorus olitorius plots assessed as major weed growth at 0.33 kg a.i/ha after 2 weeks; format: functional
Euphorbia heterophylla [18] = assay: Herbicidal activity against Euphorbia heterophylla in Abelmoschus esculentus plots assessed as major weed growth at 1.32 kg a.i/ha after 2 weeks; format: functional
Corchorus olitorius [19] = assay: Phytotoxicity in Corchorus olitorius assessed as root length at 1.32 kg a.i/ha treated to soil after 7 weeks (reference value: 16.9 +/- 0.09 mm); format: organism-based; details: in vivo, other, 1176 h
Euphorbia heterophylla [20] = assay: Herbicidal activity against Euphorbia heterophylla in Corchorus olitorius plots assessed as weed cover at 0.33 kg a.i/ha after 4 weeks (reference value: 20.1+/- 0.57 %); format: functional
Euphorbia heterophylla [21] = assay: Herbicidal activity against Euphorbia heterophylla in Corchorus olitorius plots assessed as major weed growth at 0.99 kg a.i/ha after 2 weeks; format: functional
Corchorus olitorius [22] = assay: Phytotoxicity in Corchorus olitorius assessed as shoot length at 0.33 kg a.i/ha applied as solution after 7 weeks (reference value: 22.9 +/- 0.8 mm); format: organism-based; details: in vivo, other, 1176 h
Commelina diffusa [23] = assay: Herbicidal activity against Commelina diffusa in Corchorus olitorius plots assessed as weed cover at 0.66 kg a.i/ha after 2 weeks (reference value: 81.7 +/- 0.43 %); format: functional
Abelmoschus esculentus [24] = assay: Phytotoxicity in Abelmoschus esculentus assessed as shoot length at 1.32 kg a.i/ha treated to soil after 7 weeks (reference value: 8.5 +/- 0.34 mm); format: organism-based; details: in vivo, other, 1176 h
Calopogonium mucunoides [25] = assay: Herbicidal activity against Calopogonium mucunoides in Abelmoschus esculentus plots assessed as weed cover at 0.33 kg a.i/ha after 2 weeks (reference value: 63.5 +/- 0.29 %); format: functional
Asteraceae [26] = assay: Herbicidal activity against Aspilia africana in Corchorus olitorius plots assessed as weed recovery at 0.66 kg a.i/ha after 2 weeks (reference value: 78.3 +/- 0.74 %); format: functional
Chromolaena odorata [27] = assay: Herbicidal activity against Chromolaena odorata in Corchorus olitorius plots assessed as weed cover at 0.33 kg a.i/ha after 2 weeks (reference value: 81.7 +/- 0.43 %); format: functional
Abelmoschus esculentus [28] = assay: Phytotoxicity in Abelmoschus esculentus assessed as seed germination at 0.33 kg a.i/ha applied as solution after 7 weeks (reference value: 85.7 +/- 0.36 %); format: organism-based; details: in vivo, other, 1176 h
Cyperus rotundus [29] = assay: Herbicidal activity against Cyperus rotundus in Corchorus olitorius plots assessed as weed cover at 0.66 kg a.i/ha after 2 weeks (reference value: 81.7 +/- 0.43 %); format: functional
Calopogonium mucunoides [30] = assay: Herbicidal activity against Calopogonium mucunoides in Abelmoschus esculentus plots assessed as weed cover at 0.33 kg a.i/ha after 4 weeks (reference value: 22.6 +/- 0.49 %); format: functional
Euphorbia heterophylla [31] = assay: Herbicidal activity against Euphorbia heterophylla in Corchorus olitorius plots assessed as weed cover at 0.33 kg a.i/ha after 2 weeks (reference value: 81.7 +/- 0.43 %); format: functional
Corchorus olitorius [32] = assay: Phytotoxicity in Corchorus olitorius assessed as shoot length at 1.32 kg a.i/ha applied as solution after 7 weeks (reference value: 22.9 +/- 0.8 mm); format: organism-based; details: in vivo, other, 1176 h
Calopogonium mucunoides [33] = assay: Herbicidal activity against Calopogonium mucunoides in Abelmoschus esculentus plots assessed as major weed growth at 1.32 kg a.i/ha after 2 weeks; format: functional
Commelina diffusa [34] = assay: Herbicidal activity against Commelina diffusa in Corchorus olitorius plots assessed as weed cover at 0.66 kg a.i/ha after 4 weeks (reference value: 20.1+/- 0.57 %); format: functional
Corchorus olitorius [35] = assay: Phytotoxicity in Corchorus olitorius assessed as crop seedling injury at 0.33 kg a.i/ha after 2 weeks relative to untreated control; format: organism-based; details: in vivo, 336 h

In the case of `CCC(CC)Nc1c([N+](=O)[O-])cc(C)c(C)c1[N+](=O)[O-]` [PENDIMETHALIN], the Activity (Calopogonium mucunoides [1]) is reported as 48.3%, the Activity (Synedrella nodiflora [2]) is reported as 63.3% and the Activity (Corchorus olitorius [3]) is reported as 5.7 mm. It also gave an Activity (Synedrella nodiflora [4]) of 53.8%, an Activity (Cyperus rotundus [5]) of 47.9% and an Activity (Euphorbia heterophylla [6]) of 31.7%. The Activity (Abelmoschus esculentus [7]) was 8.6 mm, the Activity (Synedrella nodiflora [8]) was 1 /m2 and the Activity (Cyperus rotundus [9]) was 47.9%. It also gave an Activity (Euphorbia heterophylla [10]) of 100%, an Activity (Euphorbia heterophylla [11]) of 50.8% and an Activity (Euphorbia heterophylla [12]) of 33.3%. The Activity (Euphorbia heterophylla [13]) was 31 /m2, the Activity (Synedrella nodiflora [14]) was 47.9% and the Activity (Abelmoschus esculentus [15]) was 11.8 mm. The Activity (Asteraceae [16]) was 51.7%, the Activity (Chromolaena odorata [17]) was 95% and the Activity (Ageratum conyzoides) was 31 /m2. For the same compound, the Activity (Euphorbia heterophylla [18]) was 31 /m2, the Activity (Corchorus olitorius [19]) was 14.7 mm and the Activity (Euphorbia heterophylla [20]) was 73.3%. The Activity (Euphorbia heterophylla [21]) was 31 /m2, the Activity (Corchorus olitorius [22]) was 7 mm and the Activity (Commelina diffusa [23]) was 51.7%. For the same compound, the Activity (Abelmoschus esculentus [24]) was 3.6 mm, the Activity (Calopogonium mucunoides [25]) was 56.8% and the Activity (Asteraceae [26]) was 33.3%. The Activity (Chromolaena odorata [27]) was 63.3%, the Activity (Abelmoschus esculentus [28]) was 52.7% and the Activity (Cyperus rotundus [29]) was 51.7%. For the same compound, the Activity (Calopogonium mucunoides [30]) was 53.8%, the Activity (Euphorbia heterophylla [31]) was 63.3% and the Activity (Corchorus olitorius [32]) was 5.3 mm. For the same compound, the Activity (Calopogonium mucunoides [33]) was 31 /m2, the Activity (Commelina diffusa [34]) was 63.3% and the Activity (Corchorus olitorius [35]) was 41.7%.
